Reference: patent US10363298B2, “Immunomodulatory compounds” (priority 2014, dated 2019)
Like-named read-outs stand apart in the source and are kept apart here.

Key:
[1] = molecular target: Vc4CBM (tandem-repeat multivalent protein of four sialic acid binding domains of V. cholerae NanH sialidase, residues 25-216, SEQ ID NO: 2) (Vibrio cholerae, UniProt A5F7A4); assay: Surface plasmon resonance (Biacore T-100): binding to immobilized multivalent, biotinylated α-2,3-sialyllactose-PAA; conditions: mean ± s.d. of three replicates
Excerpt: (§1) Tandem-repeat multivalent protein, Vc4CBM, based on the Family 40^31 sialic acid binding domain (CBM) of the nanH gene encoding the sialidase from V. cholerae, was generated using PCR-based cloning techniques as described previously^8. Oligomerisation of the CBM domain from V. cholerae nanH sialidase, and from S. pneumoniae nanA sialidase, using the trimerisation domain from the pseudaminidase protein from Pseudomonas aeruginosa was engineered as follows: the DNA fragments encoding the CBM of V. cholerae sialidase residues 25-216, and that of S. pneumoniae nanA sialidase residues 121-305, respectively, were modified at the 5′ and 3′ termini by PCR amplification using primer pairs (Table 3) to incorporate different restriction sites to link one or two copies of the CBM unit in tandem for subsequent ligation to the gene encoding the trimerization domain from P. aeruginosa pseudaminidase residues 333-438 (PaTD). The resulting fragments were cloned either into an appropriately digested pEHISTEV vector (for VcCBM fragments) or pEGFP-HISTEV vector (for SpCBM fragments) to create constructs designated as VcCBMTD, Vc2CBMTD, SpCBMTD and Sp2CBMTD, respectively (FIG. 1). […] All constructs were propagated in E. coli DH5a cells, and constructs were verified by DNA sequencing, before transforming the expression host E. coli BL21 Gold (DE3) for protein production.
(§2) Expression of engineered mCBMs was performed as described previously^8 with some modifications. Briefly, E. coli cells containing either His-tagged VcCBMs or GFP-His-tagged SpCBMs were lysed in a buffer containing PBS, 0.3M NaCl and 10 mM imidazole with DNAase (20 μg/ml) and protease (minus EDTA) inhibitor tablets (Roche). Clarified lysates were applied onto a HisTrap HP column, pre-charged with nickel (GE Healthcare) before elution of histidine-tagged CBMs using PBS containing 0.3 M NaCl and 250 mM imidazole. Removal of tag, unless otherwise stated, was performed by digestion in situ with TEV protease overnight before re-applying material to the nickel column. All mCBM proteins were further purified using size exclusion chromatography with a HiPrep 16/60 Sephacryl S200HR column (GE Healthcare) in PBS before using either a Vivapure S Maxi H (VcCBMs) or Q Maxi H (SpCBMs) column (Sartorius) to remove endotoxins. GFP-tagged proteins were also subjected to affinity chromatography and size exclusion chromatography as described above. […] Protein purity and size were verified by 12% SDS polyacrylamide gel electrophoresis and mass spectrometry. Purified mCBMs binding to sialic acid was verified by surface plasmon resonance (Biacore T-100, University of Edinburgh) using a streptavidin-coated biosensor chip immobilized with a multivalent, biotinylated α-2,3-sialyllactose-PAA (Glycotech) (Table 1).

[2] = molecular target: multivalent forms of VcCBM and SpCBM; assay: Surface plasmon resonance, summary statement for the multivalent forms; conditions: read-out: dissociation constants, SPR
Excerpt: Tandem-repeat multivalent protein, Vc4CBM, based on the Family 40^31 sialic acid binding domain (CBM) of the nanH gene encoding the sialidase from V. cholerae, was generated using PCR-based cloning techniques as described previously^8. Oligomerisation of the CBM domain from V. cholerae nanH sialidase, and from S. pneumoniae nanA sialidase, using the trimerisation domain from the pseudaminidase protein from Pseudomonas aeruginosa was engineered as follows: the DNA fragments encoding the CBM of V. cholerae sialidase residues 25-216, and that of S. pneumoniae nanA sialidase residues 121-305, respectively, were modified at the 5′ and 3′ termini by PCR amplification using primer pairs (Table 3) to incorporate different restriction sites to link one or two copies of the CBM unit in tandem for subsequent ligation to the gene encoding the trimerization domain from P. aeruginosa pseudaminidase residues 333-438 (PaTD). The resulting fragments were cloned either into an appropriately digested pEHISTEV vector (for VcCBM fragments) or pEGFP-HISTEV vector (for SpCBM fragments) to create constructs designated as VcCBMTD, Vc2CBMTD, SpCBMTD and Sp2CBMTD, respectively (FIG. 1). […] All constructs were propagated in E. coli DH5a cells, and constructs were verified by DNA sequencing, before transforming the expression host E. coli BL21 Gold (DE3) for protein production. […]

[3] = molecular target: VcCBMTD (CBM of V. cholerae NanH sialidase, residues 25-216, SEQ ID NO: 2, fused to trimerisation domain of P. aeruginosa pseudaminidase, residues 333-438, SEQ ID NO: 6) (Vibrio cholerae, UniProt A5F7A4); assay: Surface plasmon resonance (Biacore T-100): binding to immobilized multivalent, biotinylated α-2,3-sialyllactose-PAA; conditions: mean ± s.d. of three replicates
Excerpt: as §1, §2

[4] = molecular target: Vc2CBMTD (two tandem CBMs of V. cholerae NanH sialidase, residues 25-216, SEQ ID NO: 2, fused to trimerisation domain of P. aeruginosa pseudaminidase, residues 333-438, SEQ ID NO: 6) (Vibrio cholerae serotype O1, UniProt A5F7A4); assay: as above; conditions: mean ± s.d. of three replicates
Excerpt: as §1, §2

[5] = molecular target: influenza virus haemagglutinin (HA) monomer (Influenza A virus, UniProt P03437); conditions: read-out: affinity for its receptor; cited from earlier work
[6] = read-out: ka (association ('on') rate constant), 15 °C
[7] = read-out: ka (association ('on') rate constant), 25 °C
[8] = read-out: ka (association ('on') rate constant), 37 °C
[9] = read-out: kd (dissociation ('off') rate constant), 15 °C
[10] = read-out: kd (dissociation ('off') rate constant), 25 °C
[11] = read-out: kd (dissociation ('off') rate constant), 37 °C

Compound | kon [1, 6] [M⁻¹ s⁻¹] | kon [1, 7] [M⁻¹ s⁻¹] | kon [1, 8] [M⁻¹ s⁻¹] | koff [1, 9] [s⁻¹] | koff [1, 10] [s⁻¹] | koff [1, 11] [s⁻¹] | Kd [2] [µM] | kon [3, 6] [M⁻¹ s⁻¹] | kon [3, 7] [M⁻¹ s⁻¹] | kon [3, 8] [M⁻¹ s⁻¹] | koff [3, 9] [s⁻¹] | koff [3, 10] [s⁻¹] | koff [3, 11] [s⁻¹] | kon [4, 6] [M⁻¹ s⁻¹] | kon [4, 7] [M⁻¹ s⁻¹] | kon [4, 8] [M⁻¹ s⁻¹] | koff [4, 9] [s⁻¹] | koff [4, 10] [s⁻¹] | koff [4, 11] [s⁻¹] | Kd [5] [µM]
CC(=O)N[C@H]1[C@H]([C@H](O)[C@H](O)CO)O[C@@](O[C@H]2[C@@H](O)[C@@H](CO)O[C@@H](O[C@H]3[C@H](O)[C@@H](O)C(O)O[C@@H]3CO)[C@@H]2O)(C(=O)O)C[C@@H]1O (stereo partly drawn) [α-2,3-sialyllactose] | 540000 ± 10000 | 3.56e+06 ± 20000 | 2.98e+06 ± 20000 | 0.00051 ± 1e-05 | 0.0016 ± 1e-05 | 0.00541 ± 4e-05 | < 0.001 | 2.55e+06 ± 20000 | 7.24e+06 ± 60000 | 2.07e+07 ± 540000 | 0.0042 ± 2e-05 | 0.0124 ± 0.0001 | 0.107 | 1.83e+06 ± 10000 | 1.73e+06 ± 10000 | 8.45e+06 ± 50000 | 0.00033 ± 1e-05 | 0.0007 ± 1e-05 | 0.00207 ± 1e-05 | 
sialic acid |  |  |  |  |  |  |  |  |  |  |  |  |  |  |  |  |  |  |  | ~2500
